Reference: patent US11780826B2 (Amgen Inc., priority 2017, dated 2023)

Test system: Bovine cardiac myofibrils
Assay: In vitro model of dose-dependent myofibril ATPase modulation (AC1.4, pyruvate kinase/lactate dehydrogenase-coupled ATPase assay at pCa25)
Type: biochemical
Conditions: concentration at which ATPase activity was 1.4-fold higher than the bottom of the dose curve, mean of a minimum of two independent tests
Outline: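 Coupled-enzyme ATPase on bovine heart myofibrils, 1 mM ATP, EGTA/CaCl2 buffered; 340 nm readout.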

Row | AC1.4 [µM] | SMILES
1 | 0.04293 | N#CC1CN(S(=O)(=O)c2cccc(C(=O)N3CCC[C@@H]3C(=O)NCc3ccc(C(F)(F)F)cc3F)c2)C1 [Example 42, 1-((3-((3-cyano-1-azetidinyl)sulfonyl)phenyl)carbonyl)-N-(2-fluoro-4-(trifluoromethyl)benzyl)-D-prolinamide]
2 | 1.0425 | CS(=O)(=O)c1cccc(C(=O)N2C[C@H](C(F)F)C[C@@H]2C(=O)N[C@@H](c2ccc(C(F)(F)F)cc2F)C2CC2)c1 [Example 354, (4R)-N-((R)-cyclopropyl(2-fluoro-4-(trifluoromethyl)phenyl)methyl)-4-(difluoromethyl)-1-(3-(methylsulfonyl)benzoyl)-D-prolinamide]
3 | 4.6285 | CC1(O)CN(S(=O)(=O)N2CCC[C@H](C(=O)N3CCC[C@@H]3C(=O)NCc3ccc(Cl)c(F)c3)C2)C1 [Example 663, N-(4-chloro-3-fluorobenzyl)-1-(((3S)-1-((3-hydroxy-3-methyl-1-azetidinyl)sulfonyl)-3-piperidinyl)carbonyl)-D-prolinamide]
4 | 4.2315 | CCc1ccnc(C(=O)N2[C@@H](C(=O)N[C@@H](c3cc(F)c(Cl)cc3F)C3CC3)C[C@H]3C[C@H]32)c1 [Example 640, (1R,3R,5R)-N-((R)-(4-chloro-2,5-difluorophenyl)(cyclopropyl)methyl)-2-((4-ethyl-2-pyridinyl)carbonyl)-2-azabicyclo[3.1.0]hexane-3-carboxamide]
5 | 0.3001 | CS(=O)(=O)c1cccc(C(=O)N2C[C@@H](F)C[C@@H]2C(=O)N[C@@H](c2cc(F)c(C(F)(F)F)cc2F)C2CC2)c1 [Example 173, (4S)-N-((R)-cyclopropyl(2,5-difluoro-4-(trifluoromethyl)phenyl)methyl)-4-fluoro-1-(3-(methylsulfonyl)benzoyl)-D-prolinamide]
6 | 8.7825 | COc1ccc2c(c1)[C@H](NC(=O)[C@H]1CCCN1C(=O)[C@H]1CCCN(S(=O)(=O)N3CC(C#N)C3)C1)CCO2 [Example 783, 1-(((3S)-1-((3-cyano-1-azetidinyl)sulfonyl)-3-piperidinyl)carbonyl)-N-((4R)-6-methoxy-3,4-dihydro-2H-chromen-4-yl)-D-prolinamide]
7 | 1.361 | O=C(N[C@@H](c1cc(F)c(Cl)cc1F)C1CC1)[C@H]1C[C@@H](O)CN1C(=O)c1ccnc(C(F)(F)F)c1 [Example 397, (4R)-N-((R)-(4-chloro-2,5-difluorophenyl)(cyclopropyl)methyl)-4-hydroxy-1-((2-(trifluoromethyl)-4-pyridinyl)carbonyl)-D-prolinamide]
8 | 0.6764 | N#CC1CN(S(=O)(=O)N2CCC[C@H](C(=O)N3CCC[C@@H]3C(=O)NC(c3ccccc3)c3ccc(Cl)cc3)C2)C1 (stereo partly drawn) [Example 268, (2R)-N-((4-chlorophenyl)(phenyl)methyl)-1-((S)-1-((3-cyanoazetidin-1-yl)sulfonyl)piperidine-3-carbonyl)pyrrolidine-2-carboxamide]
9 | 1.0947 | Cc1cc(CNC(=O)[C@H]2CCCN2C(=O)[C@H]2CCCN(S(=O)(=O)N3CC(C#N)C3)C2)cc(C(F)(F)F)c1 [Example 358, 1-(((3S)-1-((3-cyano-1-azetidinyl)sulfonyl)-3-piperidinyl)carbonyl)-N-(3-methyl-5-(trifluoromethyl)benzyl)-D-prolinamide]
10 | 9.071 | Cc1ccc([C@H](NC(=O)[C@H]2C[C@H](F)CN2C(=O)c2cccc(S(C)(=O)=O)c2)C2CC2)cc1F [Example 792, (4S)-N-((R)-cyclopropyl(3-fluoro-4-methyIphenyl)methyl)-4-fluoro-1-(3-(methylsulfonyl)benzoyl)-D-prolinamide]
11 | 2.1245 | CS(=O)(=O)c1cncc(C(=O)N2C[C@@H](F)C[C@@H]2C(=O)N[C@@H](c2cc(F)c(Cl)cc2F)C2CC2)c1 [Example 488, (4S)-N-((R)-(4-chloro-2,5-difluorophenyl)(cyclopropyl)methyl)-4-fluoro-1-((5-(methylsulfonyl)-3-pyridinyl)carbonyl)-D-prolinamide]
12 | 2.3495 | O=C(N[C@@H](c1cc(F)c(Cl)cc1F)C1COC1)[C@H]1C[C@@H](O)CN1C(=O)c1ccnc(C(F)F)c1 [Example 501, (4R)-N-((R)-(4-chloro-2,5-difluorophenyl)(3-oxetanyl)methyl)-1-((2-(difluoromethyl)-4-pyridinyl)carbonyl)-4-hydroxy-D-prolinamide]
13 | 0.2366 | CS(=O)(=O)c1cccc(C(=O)N2C[C@@H](F)C[C@@H]2C(=O)N[C@@H](c2cc(F)c(Cl)cc2F)C2COC2)c1 [Example 141, (4S)-N-((R)-(4-chloro-2,5-difluorophenyl)(3-oxetanyl)methyl)-4-fluoro-1-(3-(methylsulfonyl)benzoyl)-D-prolinamide]
14 | 4.4125 | CC(C)(C)c1cc(C(=O)N2[C@@H](C(=O)N[C@@H](c3ccc(C(F)(F)F)cc3F)C3COC3)C[C@H]3C[C@H]32)ccn1 [Example 647, (1R,3R,5R)-N-((R)-(2-fluoro-4-(trifluoromethyl)phenyl)(3-oxetanyl)methyl)-2-((2-(2-methyl-2-propanyl)-4-pyridinyl)carbonyl)-2-azabicyclo[3.1.0]hexane-3-carboxamide]
15 | 1.2085 | CC(=O)Nc1ccccc1C(=O)N1[C@@H](C(=O)N[C@@H](c2ccc(C(F)(F)F)cc2F)C2CC2)C[C@H]2C[C@H]21 [Example 372, (1R,3R,5R)-2-(2-acetamidobenzoyl)-N-((R)-cyclopropyl(2-fluoro-4-(trifluoromethyl)phenyl)methyl)-2-azabicyclo[3.1.0]hexane-3-carboxamide]
16 | 0.1146 | CS(=O)(=O)c1cc(F)cc(C(=O)N2[C@@H](C(=O)N[C@@H](c3cc(F)c(Cl)cc3F)C3COC3)C[C@H]3C[C@H]32)c1 [Example 83, (1R,3R,5R)-N-((R)-(4-chloro-2,5-difluorophenyl)(3-oxetanyl)methyl)-2-(3-fluoro-5-(methylsulfonyl)benzoyl)-2-azabicyclo[3.1.0]hexane-3-carboxamide]
17 | 9.578 | N#CC1CN(S(=O)(=O)N2CCC[C@H](C(=O)N3[C@@H]4C[C@@H]4C[C@H]3C(=O)NCc3ccc(C(F)(F)F)cc3)C2)C1 [Example 801, (1R,3S,5R)-2-(((3S)-1-((3-cyano-1-azetidinyl)sulfonyl)-3-piperidinyl)carbonyl)-N-(4-(trifluoromethyl)benzyl)-2-azabicyclo[3.1.0]hexane-3-carboxamide]
18 | 6.4425 | O=C(N[C@@H](c1cc(F)c(Cl)cc1F)C1COC1)[C@H]1C[C@H](O)CN1C(=O)c1ccnc(C(F)(F)F)c1 [Example 723, (4S)-N-((R)-(4-chloro-2,5-difluorophenyl)(3-oxetanyl)methyl)-4-hydroxy-1-((2-(trifluoromethyl)-4-pyridinyl)carbonyl)-D-prolinamide]
19 | 0.7685 | N#CC1CN(S(=O)(=O)N2CCC[C@H](C(=O)N3CCC[C@@H]3C(=O)NCc3ccc(F)c(C(F)(F)F)c3)C2)C1 [Example 297, 1-(((3S)-1-((3-cyano-1-azetidinyl)sulfonyl)-3-piperidinyl)carbonyl)-N-(4-fluoro-3-(trifluoromethyl)benzyl)-D-prolinamide]
20 | 8.1415 | O=C(NCc1ccc(C(F)(F)F)cc1)[C@H]1CCCN1C(=O)[C@H]1CCCN(S(=O)(=O)N2CC(c3cccc(C(F)(F)F)c3)C2)C1 [Example 771, N-(4-(trifluoromethyl)benzyl)-1-(((3S)-1-((3-(3-(trifluoromethyl)phenyl)-1-azetidinyl)sulfonyl)-3-piperidinyl)carbonyl)-D-prolinamide]
